“And” between values parts separate entries of the source, which are not always exact repeats. Equal entries are not always repeated.
Test system: 324938-238-R-J1-PDC complex spheroid viability
Test: Anticancer human tumor 324938-238-R-J1-PDC patient-derived bladder carcinoma cell line growth inhibition
Conditions: for viability, T/C: stronger effect = lower value
Excerpt: Multicellular complex tumor spheroid response to LSD1 Inhibitor Iadademstat in combination with a variety of drugs and investigational agents in selected tumor cell lines
The current study was undertaken to assess response to LSD1 inhibitors in combination with standard-of-care drugs and investigational agents in solid tumor complex spheroid models as well as in the K-562 leukemia. Complex spheroids include a stromal component modeled by human endothelial cells (HUVEC) and fibroblasts modeled by human mesenchymal stem cells (MSCs). The concentration ranges selected for each drug and investigational agent were based upon clinically achievable concentrations if the clinical Cmax of the agent was known.
Compounds. The drugs and investigational agents used in this study are listed on Table 1. All of the agents used, including staurosporine (NSC755774) and gemcitabine (NSC613327), were obtained from the Developmental Therapeutics Program, NCI. FDA-approved anticancer drugs are available from the NCI at http://dtp.nci.nih.gov/branches/dscb/oncology_drugset_explanation.html. Drugs and investigational agents were >95% pure by proton nuclear magnetic resonance (NMR) and liquid chromatography/mass spectrometry (LC/MS). Stock solutions were prepared at 400x in DMSO, stored at -70 degrees C, and diluted in fresh medium prior to their use. The final concentration of DMSO in cell culture wells never exceeded 0.25% (v/v). The FDA-approved anticancer drug set is available from the Developmental Therapeutics Program at https://dtp.cancer.gov/organization/dscb/obtaining/available_plates.htm. All drugs and investigational agents were tested over a range starting from a high concentration at or near the clinical Cmax and decreasing in half-log increments. If the clinical Cmax for an agent had not been determined, the highest concentration tested was 10 microM.
Cell Lines. The patient-derived cancer cell (PDC) lines: 292921-168-R-J2-PDC, K24384-001-R-PDC, and 521955-158-R2-J5-PDC pancreatic carcinomas, 556581-035-R-J1 ovarian carcinoma, 324938-238-R-J1-PDC, 855422-203-R-J1-PDC and 883617-216-R-J1-PDC urothelial bladder carcinomas, 743489-274-T-PDC renal cell carcinoma, 138582-R-J1 Merkel cell tumor, K60290-347-R-J1 and K57222-313-R-J1-PDC glioblastomas, 653999-131-R-J2-PDC, LG0703-F948-PDC, and 349418-098-R-PDC non-small cell lung carcinomas, 885512-296-R-J2-PDC, 171881-019-R-J1-PDC breast carcinomas and 186277-243-T-J2-PDC and 233499-124-R-J2-PDC colon carcinomas were obtained from the NCI Patient-Derived Models Repository (PDMR, https://pdmr.cancer.gov). The established cell lines NCI/ADR-RES (RRID:CVCL_14520 and OVCAR-5 (RRID:CVCL_1628) ovarian carcinomas, 786-O (RRID:CVCL_1051) and A498 (RRID:CVCL_A498) renal cell carcinoma, NCI-H211 (ATCC, cat. CRL-5824; RRID:CVCL_1529), NCI-H196 (ATCC, cat. CRL-5823, RRID:CVCL_1509), SW 1271 (ATCC, cat. CRL-2177, RRID:CVCL_1716) and NCI-H1876 (ATCC, cat. CRL-5902, RRID:CVCL_1503) small cell lung carcinomas, MDA-MB-231 (RRID:CVCL_0062) and MDA-MB-468 (RRID:CVCL_0419)breast carcinomas (10-12). Pooled donor human umbilical vein endothelial cells (HUVEC, Lonza, cat. CC-2519) and human mesenchymal stem cells (hMSC, Lonza, cat. PT-2501) were purchased from Lonza (Walkersville, MD).
Cell Culture. All cells were maintained in an incubator at 37 degrees C and 5% CO2 with 95% humidity. The PDC lines were cultured according to standard operating procedures established by the NCI PDMR (https://pdmr.cancer.gov). Briefly all PDCs were thawed and cultured in Matrigel-coated flasks prepared with a working solution of 1X Ham's F-12 nutrient mix, without supplementation (Invitrogen, Waltham, MA, cat. 11765054), 100 U/mL penicillin-streptomycin (Invitrogen, cat. 15140122), and 2.5% Matrigel (Corning Inc., Corning, NY, cat. 354248) for the first three passages. […]

[1] = curve of first compound, second compound 0.1 µM
[2] = curve of first compound, second compound 0.316 µM
[3] = curve of first compound, second compound 1 µM
[4] = curve of first compound, second compound 3.16 µM
[5] = curve of first compound, second compound 10 µM
[6] = second compound 0.1 µM, first compound 0.0316 µM
[7] = second compound 0.1 µM, first compound 0.1 µM
[8] = second compound 0.1 µM, first compound 0.316 µM
[9] = second compound 0.1 µM, first compound 1 µM
[10] = second compound 0.316 µM, first compound 0.0316 µM
[11] = second compound 0.316 µM, first compound 0.1 µM
[12] = second compound 0.316 µM, first compound 0.316 µM
[13] = second compound 0.316 µM, first compound 1 µM
[14] = second compound 1 µM, first compound 0.0316 µM
[15] = second compound 1 µM, first compound 0.1 µM
[16] = second compound 1 µM, first compound 0.316 µM
[17] = second compound 1 µM, first compound 1 µM
[18] = second compound 3.16 µM, first compound 0.0316 µM
[19] = second compound 3.16 µM, first compound 0.1 µM
[20] = second compound 3.16 µM, first compound 0.316 µM
[21] = second compound 3.16 µM, first compound 1 µM
[22] = second compound 10 µM, first compound 0.0316 µM
[23] = second compound 10 µM, first compound 0.1 µM
[24] = second compound 10 µM, first compound 0.316 µM
[25] = second compound 10 µM, first compound 1 µM
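Note: spheroids also contain HUVEC and human MSCs and agents combined with iadademstat; spheroids exposed to agents for 7 days before readout.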

Nc1ncn(C2CC(O)C(CO)O2)c(=O)n1 (stereo unspecified) + NC1CCC(NC2CC2c2ccccc2)CC1
IC50 [1]: 0.177 µM | IC50 [2]: 0.256 µM | IC50 [3]: 0.159 µM | IC50 [4]: 0.129 µM | IC50 [5]: 0.237 µM | viability, T/C (second compound 0.1 µM, first compound 0.00316 µM): 71.8% | viability, T/C (second compound 0.1 µM, first compound 0.01 µM): 66% | viability, T/C [6]: 59.3% | viability, T/C [7]: 56.1% | viability, T/C [8]: 44% | viability, T/C [9]: 40.3% | viability, T/C (second compound 0.316 µM, first compound 0.00316 µM): 74.9% | viability, T/C (second compound 0.316 µM, first compound 0.01 µM): 67.1% | viability, T/C [10]: 68.4% | viability, T/C [11]: 55.1% | viability, T/C [12]: 45.6% | viability, T/C [13]: 42% | viability, T/C (second compound 1 µM, first compound 0.00316 µM): 73.2% | viability, T/C (second compound 1 µM, first compound 0.01 µM): 58.7% | viability, T/C [14]: 60.4% | viability, T/C [15]: 50.7% | viability, T/C [16]: 46.2% | viability, T/C [17]: 47% | viability, T/C (second compound 3.16 µM, first compound 0.00316 µM): 61.9% | viability, T/C (second compound 3.16 µM, first compound 0.01 µM): 58.6% | viability, T/C [18]: 54.3% | viability, T/C [19]: 53.4% | viability, T/C [20]: 44.5% | viability, T/C [21]: 39.5% | viability, T/C (second compound 10 µM, first compound 0.00316 µM): 63.5% | viability, T/C (second compound 10 µM, first compound 0.01 µM): 67.3% | viability, T/C [22]: 57.9% | viability, T/C [23]: 59.1% | viability, T/C [24]: 45.2% | viability, T/C [25]: 37%

COc1ccc([C@@H](O)c2cc(-c3ncnc4cc(N5CCOCC5)ccc34)c(F)cc2Cl)nn1 + NC1CCC(NC2CC2c2ccccc2)CC1
IC50 [1]: 1.75 µM | IC50 [2]: 1.87 µM | IC50 [3]: 1.33 µM | IC50 [4]: 0.944 µM | IC50 [5]: 1.09 µM | viability, T/C [6]: 81.4% | viability, T/C [7]: 70.8% | viability, T/C [8]: 63.3% | viability, T/C [9]: 61.1% | viability, T/C (second compound 0.1 µM, first compound 3.16 µM): 42.8% | viability, T/C (second compound 0.1 µM, first compound 10 µM): 26.8% | viability, T/C [10]: 80.8% | viability, T/C [11]: 76.7% | viability, T/C [12]: 61.4% | viability, T/C [13]: 58% | viability, T/C (second compound 0.316 µM, first compound 3.16 µM): 47.7% | viability, T/C (second compound 0.316 µM, first compound 10 µM): 28.9% | viability, T/C [14]: 72.9% | viability, T/C [15]: 73.4% | viability, T/C [16]: 65.2% | viability, T/C [17]: 50.3% | viability, T/C (second compound 1 µM, first compound 3.16 µM): 42.6% | viability, T/C (second compound 1 µM, first compound 10 µM): 28.5% | viability, T/C [18]: 70% | viability, T/C [19]: 78% | viability, T/C [20]: 59.3% | viability, T/C [21]: 48.4% | viability, T/C (second compound 3.16 µM, first compound 3.16 µM): 38.3% | viability, T/C (second compound 3.16 µM, first compound 10 µM): 26.4% | viability, T/C [22]: 64.8% | viability, T/C [23]: 76.5% | viability, T/C [24]: 61.6% | viability, T/C [25]: 50.2% | viability, T/C (second compound 10 µM, first compound 3.16 µM): 37% | viability, T/C (second compound 10 µM, first compound 10 µM): 26%

Nc1ncn(C2CC(O)C(CO)S2)c(=O)n1 (stereo unspecified)
viability, T/C (compound 0.000949 µM): 97.4% and 106% | viability, T/C (compound 0.003 µM): 88.2% and 90.7% | viability, T/C (compound 0.00949 µM): 72.2% and 69.6% | viability, T/C (compound 0.03 µM): 51.5% and 46.5% | viability, T/C (compound 0.0949 µM): 33.2% and 27.5% | viability, T/C (compound 0.3 µM): 22.2% and 17.4% | IC50 (curve of compound): 0.0328 µM and 0.0248 µM

COc1cc(C2c3cc4c(cc3C(OC3OC5COC(C)OC5C(O)C3O)C3COC(=O)C23)OCO4)cc(OC)c1O (stereo unspecified)
viability, T/C (compound 0.00949 µM): 97.2% and 106% | viability, T/C (compound 0.03 µM): 84.8% and 76% | viability, T/C (compound 0.0949 µM): 34.7% and 35.1% | viability, T/C (compound 0.3 µM): 20.9% and 20.7% | viability, T/C (compound 0.949 µM): 19.2% and 17.7% | viability, T/C (compound 3 µM): 8.35% and 8.98% | IC50 (curve of compound): 0.0675 µM and 0.0639 µM

Cn1ncnc1C1c2n[nH]c(=O)c3cc(F)cc(c23)NC1c1ccc(F)cc1 (stereo unspecified)
viability, T/C (compound 0.000316 µM): 99.3% and 106% | viability, T/C (compound 0.001 µM): 102% and 99.5% | viability, T/C (compound 0.00316 µM): 99.7% and 90.2% | viability, T/C (compound 0.01 µM): 92.3% and 94.8% | viability, T/C (compound 0.0316 µM): 82.6% and 76% | viability, T/C (compound 0.1 µM): 68.6% and 58.2% | IC50 (curve of compound): > 0.1 µM

— PubChem BioAssay AID1918935 (Molecular Pharmacology Branch, DTP, NCI, 2023)
